Laboratory results reported in US4795826A, “Ortho-phenylenediamine compounds” (priority 1986, dated 1989).

Test system: P388 leukemia
Assay: P388 leukemia in vivo (increase in lifespan of mice, i.p. tumour)
Details: for ILSmax (percentage increase in lifespan) / ILSmax (percentage increase in lifespan), marked *: P388, at OD on days 1, 5, 9, >20% statistically significant; for ILSmax (percentage increase in lifespan): values without asterisk, controls 11 days; for active (P388): P388, at the stated dose

Structure (SMILES) | ILSmax (percentage increase in lifespan) [%] | active (P388) | ILSmax (percentage increase in lifespan), marked * [%]
CNC(=O)c1cccc2c(Nc3ccc(NS(C)(=O)=O)cc3NC)c3cccc(C)c3nc12 [Compound 24] | 94 | Y | 
CNc1cc(NS(C)(=O)=O)ccc1Nc1c2cccc(C)c2nc2c(C)cccc12 [Compound 25] | 107 | Y | 
CS(=O)(=O)Nc1ccc(Nc2c3ccccc3nc3ccccc23)c(NCC(O)CO)c1 (stereo not drawn) [Compound 30] | 84 | Y | 
CNc1cc(NS(C)(=O)=O)ccc1Nc1c2ccccc2nc2cc(I)ccc12 [Compound 8] | 80 | Y | 
CNc1cc(NP(=O)(OC)OC)ccc1Nc1c2ccccc2nc2cc(Br)ccc12 [Compound 48] | 77 | Y | 
CNc1cc(NS(=O)(=O)c2ccc(N)cc2)ccc1Nc1c2ccccc2nc2c(C)cccc12 [Compound 64] | 139 | Y | 
CNc1cc(NS(C)(=O)=O)ccc1Nc1c2ccc(Cl)cc2nc2c(OC)cccc12 [Compound 20] | 105 | Y | 
CNc1cc(NS(C)(=O)=O)ccc1Nc1c2ccccc2nc2cc(OC)ccc12 [Compound 4] |  | Y | 140
CN(CCO)c1cc(NS(C)(=O)=O)ccc1Nc1c2ccccc2nc2ccccc12 [Compound 45] |  | Y | 100
COC(=O)Nc1ccc(Nc2c3ccccc3nc3ccccc23)c(NCCO)c1 [Compound 51] | 121 | Y | 
CNc1cc(NS(C)(=O)=O)ccc1Nc1c2ccccc2nc2cc(NC(=O)OC)ccc12 [Compound 11] |  | Y | 135
Cc1cccc2c(Nc3ccc(NS(C)(=O)=O)cc3NCC(O)CO)c3ccccc3nc12 (stereo not drawn) [Compound 31] | 83 | Y | 
CNc1cc(NS(C)(=O)=O)ccc1Nc1c2ccc(C)cc2nc2c(C)cccc12 [Compound 16] | 92 | Y | 
CNc1cc(NC(=O)OC)ccc1Nc1c2ccccc2nc2cc(F)ccc12 [Compound 53] | 110 | Y | 
CNc1ccc2c(Nc3ccc(NS(C)(=O)=O)cc3NC)c3ccccc3nc2c1 [Compound 10] |  | Y | 208
CNc1cc(NC(=O)OC)ccc1Nc1c2ccccc2nc2cc(Cl)ccc12 [Compound 54] | 104 | Y | 
CS(=O)(=O)Nc1ccc(Nc2c3ccccc3nc3cc(Br)ccc23)c(NCCO)c1 [Compound 28] | 117 | Y | 
CNc1cc(NC(=O)OC)ccc1Nc1c2ccccc2nc2cc(Br)ccc12 [Compound 55] | 101 | Y | 
CNc1cc(NS(=O)(=O)c2ccc(N)cc2)ccc1Nc1c2ccccc2nc2cc(Br)ccc12 [Compound 63] | 115 | Y | 
CNc1cc(NS(C)(=O)=O)ccc1Nc1c2ccccc2nc2cc(F)ccc12 [Compound 5] |  | Y | 157
CNc1cc(NS(C)(=O)=O)ccc1Nc1c2ccc(Br)cc2nc2c(C)cccc12 [Compound 21] | 122 | Y | 

Structure (SMILES) | ILSmax (percentage increase in lifespan) [%] | active (P388) | ILSmax (percentage increase in lifespan), marked * [%]
CNc1cc(NS(C)(=O)=O)ccc1Nc1c2ccccc2nc2cc(Br)ccc12 [Compound 7] | 94 | Y | 
CNc1cc(NS(C)(=O)=O)ccc1Nc1c2ccccc2nc2cc(Cl)ccc12 [Compound 6] |  | Y | 149
CNc1cc(NS(C)(=O)=O)ccc1Nc1c2ccccc2nc2cc([N+](=O)[O-])ccc12 [Compound 9] | 70 | Y | 
CNc1cc(NS(C)(=O)=O)ccc1Nc1c2ccc(OC)cc2nc2c(C)cccc12 [Compound 17] | 102 | Y | 
CNc1cc(NC(=O)OC)ccc1Nc1c2ccccc2nc2cc(C)ccc12 [Compound 52] | 86 | Y | 
CNc1cc(NS(=O)(=O)c2ccccc2)ccc1Nc1c2ccccc2nc2ccccc12 [Compound 60] | 117 | Y | 
CNC(=O)c1cccc2c(Nc3ccc(NS(C)(=O)=O)cc3NC)c3ccccc3nc12 [Compound 15] | 82 | Y | 
CNc1cc(NC(=O)Oc2ccccc2)ccc1Nc1c2ccccc2nc2ccccc12 [Compound 66] | 71 | Y | 
CNc1cc(NP(=O)(OC)OC)ccc1Nc1c2ccccc2nc2c(C)cccc12 [Compound 49] | 91 | Y | 
O=S(=O)(Nc1ccc(Nc2c3ccccc3nc3ccccc23)c(NCCO)c1)c1ccccc1 [Compound 61] | 81 | Y | 
CS(=O)(=O)Nc1ccc(Nc2c3ccccc3nc3ccccc23)c(NCCO)c1 [Compound 27] | 89 | Y | 
CNc1cc(NS(C)(=O)=O)ccc1Nc1c2ccc(C)cc2nc2c(OC)cccc12 [Compound 22] | 122 | Y | 
Nc1ccc(S(=O)(=O)Nc2ccc(Nc3c4ccccc4nc4ccccc34)c(NCCO)c2)cc1 [Compound 65] | 50 | Y | 
CNC(=O)c1cccc2c(Nc3ccc(NS(C)(=O)=O)cc3NC)c3ccc(Cl)cc3nc12 [Compound 23] | 59 | Y | 
Cc1cccc2c(Nc3ccc(NS(C)(=O)=O)cc3N(C)CCO)c3ccccc3nc12 [Compound 46] |  | Y | 152
COC(=O)Nc1ccc(Nc2c3ccccc3nc3ccccc23)c(N(C)C)c1 [Compound 59] | 51 | Y | 
CNc1cc(NP(=O)(OC)OC)ccc1Nc1c2ccccc2nc2ccccc12 [Compound 47] | 118 | Y | 
CNc1cc(NS(C)(=O)=O)ccc1Nc1c2ccccc2nc2cc(C)ccc12 [Compound 3] | 83 | Y | 
CNc1cc(NS(=O)(=O)c2ccc(N)cc2)ccc1Nc1c2ccccc2nc2ccccc12 [Compound 62] | 104 | Y | 
Cc1cccc2c(Nc3ccc(NS(C)(=O)=O)cc3NCCO)c3ccccc3nc12 [Compound 29] |  | Y | 159
CNc1cc(NS(C)(=O)=O)ccc1Nc1c2cccc(OC)c2nc2c(OC)cccc12 [Compound 26] | 84 | Y | 
